Entries after “also recorded” stand apart in the source; their conditions may differ.
How the values were obtained:
pituitary tumors = conditions: cited from earlier work
glucocorticoid receptor = glucocorticoid receptor (Homo sapiens, UniProt P04150); conditions: HepG2 cells; cited from earlier work
progesterone receptor = progesterone receptor (Homo sapiens, UniProt P06401); conditions: cited from earlier work
[1] = target: T1, mineralocorticoid receptor (Homo sapiens, UniProt P08235); conditions: cited from earlier work
T1 sequence (P08235 1-984): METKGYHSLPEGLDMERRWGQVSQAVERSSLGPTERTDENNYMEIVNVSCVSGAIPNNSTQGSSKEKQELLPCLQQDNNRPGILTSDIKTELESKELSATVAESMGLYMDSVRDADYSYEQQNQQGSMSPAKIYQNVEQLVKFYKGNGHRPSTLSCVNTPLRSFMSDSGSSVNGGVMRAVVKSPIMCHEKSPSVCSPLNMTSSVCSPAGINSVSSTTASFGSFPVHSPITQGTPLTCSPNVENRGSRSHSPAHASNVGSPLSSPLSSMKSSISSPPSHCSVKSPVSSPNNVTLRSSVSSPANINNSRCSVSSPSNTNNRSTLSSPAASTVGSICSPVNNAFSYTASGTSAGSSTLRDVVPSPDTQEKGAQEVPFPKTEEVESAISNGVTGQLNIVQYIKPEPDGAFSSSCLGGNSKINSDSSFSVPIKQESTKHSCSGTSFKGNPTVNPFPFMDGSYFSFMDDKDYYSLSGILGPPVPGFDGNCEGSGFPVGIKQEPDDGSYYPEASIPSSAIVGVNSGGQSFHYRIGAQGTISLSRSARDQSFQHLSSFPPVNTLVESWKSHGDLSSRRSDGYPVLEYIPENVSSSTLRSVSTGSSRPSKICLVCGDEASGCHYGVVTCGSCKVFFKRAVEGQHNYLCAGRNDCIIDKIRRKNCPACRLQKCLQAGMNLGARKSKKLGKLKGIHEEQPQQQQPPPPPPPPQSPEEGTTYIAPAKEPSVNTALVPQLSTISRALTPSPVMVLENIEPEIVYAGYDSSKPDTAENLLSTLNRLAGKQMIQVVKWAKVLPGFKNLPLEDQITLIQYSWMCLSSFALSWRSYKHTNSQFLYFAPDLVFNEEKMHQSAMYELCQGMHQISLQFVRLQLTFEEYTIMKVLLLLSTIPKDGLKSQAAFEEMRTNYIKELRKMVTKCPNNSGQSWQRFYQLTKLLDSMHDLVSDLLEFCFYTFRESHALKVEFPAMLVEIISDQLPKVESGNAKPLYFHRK

androgen receptor = androgen receptor (Homo sapiens, UniProt P10275); conditions: cited from earlier work
[2] = Clinical studies of relacorilant in patients with endogenous hypercortisolism; format: in vivo, human
Excerpt: The following examples show the results of relacorilant administration to patients suffering from pituitary tumors.

pituitary macroadenoma = test: MRI measurement of pituitary tumor size in Cushing's Disease patients given relacorilant; format: in vivo, human
Excerpt: The relacorilant administration disclosed herein can reduce tumor size and confer beneficial clinical outcomes to patients having a pituitary tumor. Methods for measuring the size of a pituitary tumor are well-known to skilled artisans in the field. For example, magnetic resonance imaging (MRI) and other imaging methods may be used to detect tumor shrinkage. Other methods for determining the effect of cancer therapy on tumor size are also known in the art, e.g., as described in the Response Evaluation Criteria in Solid Tumors (“RECIST”) guidelines, discussed, for example, in Chalian et al., Radiographics 31(7):2093-2105 (2011), and available at “protocolDevelopment/docs/recist_guideline.pdf” of the website “ctep.cancer.gov”.
Measuring tumor size is typically achieved by imaging-based techniques, including magnetic resonance imaging (MRI), computed tomography (CT), positron-emission tomography (PET) and other techniques. For example, MRI, CT, and PET scans can provide accurate and reliable anatomic information not only about tumor shrinkage or growth but also progression of disease by identifying either growth in existing lesions or the development of new lesions or tumor metastasis. Tumor size, including a reduction in tumor size, may be determined by measuring a linear dimension of a tumor (measuring may be accomplished, for example, by counting pixels on a digital image, by measuring a distance on a printed image or from an image projected onto a screen); by measuring two different linear dimensions of a tumor; by measuring three, or more, different linear dimensions of a tumor; by calculating (or estimating, based on measurements) a cross-sectional area of a tumor; by calculating (or estimating, based on measurements) a volume of a tumor; or by other means known in the art. […]

estrogen receptor = conditions: cited from earlier work

Chain of androgen receptor (P10275 whole entry, species assumed): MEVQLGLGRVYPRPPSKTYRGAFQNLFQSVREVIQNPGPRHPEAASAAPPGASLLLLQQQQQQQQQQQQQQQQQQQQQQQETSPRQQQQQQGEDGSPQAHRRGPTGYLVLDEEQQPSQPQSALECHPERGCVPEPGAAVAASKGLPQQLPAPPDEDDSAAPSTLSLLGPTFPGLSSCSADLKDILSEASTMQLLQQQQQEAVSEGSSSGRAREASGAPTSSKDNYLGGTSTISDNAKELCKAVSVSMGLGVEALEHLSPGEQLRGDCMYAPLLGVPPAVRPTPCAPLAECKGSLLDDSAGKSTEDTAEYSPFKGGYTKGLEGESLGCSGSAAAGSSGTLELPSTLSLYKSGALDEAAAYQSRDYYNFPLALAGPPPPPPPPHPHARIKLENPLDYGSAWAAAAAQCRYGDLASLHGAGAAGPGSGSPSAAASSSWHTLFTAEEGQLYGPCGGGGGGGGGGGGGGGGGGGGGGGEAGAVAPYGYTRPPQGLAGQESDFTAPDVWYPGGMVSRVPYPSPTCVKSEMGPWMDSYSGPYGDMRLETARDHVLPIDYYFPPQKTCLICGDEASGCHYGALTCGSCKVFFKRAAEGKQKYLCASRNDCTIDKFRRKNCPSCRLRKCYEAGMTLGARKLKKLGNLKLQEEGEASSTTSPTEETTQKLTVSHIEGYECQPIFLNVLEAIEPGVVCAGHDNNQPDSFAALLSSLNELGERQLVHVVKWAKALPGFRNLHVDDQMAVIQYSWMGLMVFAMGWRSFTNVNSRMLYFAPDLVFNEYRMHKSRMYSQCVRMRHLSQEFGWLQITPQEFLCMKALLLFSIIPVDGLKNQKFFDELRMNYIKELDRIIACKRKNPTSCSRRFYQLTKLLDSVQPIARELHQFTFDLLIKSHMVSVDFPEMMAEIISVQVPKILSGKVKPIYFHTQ
Chain of glucocorticoid receptor (P04150 whole entry): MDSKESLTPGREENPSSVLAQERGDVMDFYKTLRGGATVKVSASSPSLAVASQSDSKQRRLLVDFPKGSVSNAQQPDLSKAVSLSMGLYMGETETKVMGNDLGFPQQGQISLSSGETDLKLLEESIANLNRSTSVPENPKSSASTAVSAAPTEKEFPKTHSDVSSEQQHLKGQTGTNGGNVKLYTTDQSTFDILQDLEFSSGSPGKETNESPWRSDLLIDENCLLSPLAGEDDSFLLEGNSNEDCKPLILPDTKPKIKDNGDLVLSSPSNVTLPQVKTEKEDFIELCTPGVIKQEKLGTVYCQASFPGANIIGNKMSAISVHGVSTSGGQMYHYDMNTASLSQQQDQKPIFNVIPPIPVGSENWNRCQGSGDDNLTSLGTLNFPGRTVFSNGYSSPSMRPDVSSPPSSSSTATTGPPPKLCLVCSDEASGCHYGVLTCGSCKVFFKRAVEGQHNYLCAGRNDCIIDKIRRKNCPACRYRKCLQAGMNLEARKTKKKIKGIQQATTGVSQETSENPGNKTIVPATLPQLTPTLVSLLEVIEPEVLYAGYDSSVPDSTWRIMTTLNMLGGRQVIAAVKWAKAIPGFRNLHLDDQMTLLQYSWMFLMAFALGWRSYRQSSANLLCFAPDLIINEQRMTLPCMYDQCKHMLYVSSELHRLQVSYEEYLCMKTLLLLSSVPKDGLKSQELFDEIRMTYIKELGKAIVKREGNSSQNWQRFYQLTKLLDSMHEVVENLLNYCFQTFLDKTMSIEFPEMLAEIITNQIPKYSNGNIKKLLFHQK
Chain of progesterone receptor (P06401 whole entry, species assumed): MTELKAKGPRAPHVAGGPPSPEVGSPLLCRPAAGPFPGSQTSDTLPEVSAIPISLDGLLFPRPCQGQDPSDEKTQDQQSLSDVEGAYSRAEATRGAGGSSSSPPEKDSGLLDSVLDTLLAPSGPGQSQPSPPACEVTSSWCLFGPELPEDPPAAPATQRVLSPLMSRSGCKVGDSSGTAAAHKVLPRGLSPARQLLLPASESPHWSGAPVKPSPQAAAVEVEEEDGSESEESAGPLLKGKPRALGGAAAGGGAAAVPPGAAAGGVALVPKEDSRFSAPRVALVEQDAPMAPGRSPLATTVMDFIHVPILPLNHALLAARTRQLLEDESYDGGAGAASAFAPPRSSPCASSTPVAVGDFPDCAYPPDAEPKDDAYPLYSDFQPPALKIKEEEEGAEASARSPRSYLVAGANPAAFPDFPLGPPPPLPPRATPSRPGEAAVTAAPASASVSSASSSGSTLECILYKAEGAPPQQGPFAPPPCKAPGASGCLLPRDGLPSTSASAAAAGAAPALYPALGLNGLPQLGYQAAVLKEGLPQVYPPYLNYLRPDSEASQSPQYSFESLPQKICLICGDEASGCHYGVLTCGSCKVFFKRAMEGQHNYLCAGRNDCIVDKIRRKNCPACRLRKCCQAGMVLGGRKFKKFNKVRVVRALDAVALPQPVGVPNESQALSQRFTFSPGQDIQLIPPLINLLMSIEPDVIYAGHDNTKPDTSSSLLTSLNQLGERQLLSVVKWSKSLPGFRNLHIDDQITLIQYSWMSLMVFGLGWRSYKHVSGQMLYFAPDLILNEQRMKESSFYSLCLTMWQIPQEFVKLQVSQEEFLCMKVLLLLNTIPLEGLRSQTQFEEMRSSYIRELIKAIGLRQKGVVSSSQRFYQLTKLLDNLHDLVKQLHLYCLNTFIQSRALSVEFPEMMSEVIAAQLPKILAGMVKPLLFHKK

SMILES | tumor regression (MRI) (pituitary tumors; 17 Cushing's Disease patients with visible tumors (10 macroadenomas), mifepristone for 24 weeks) | MRI images of tumor over treatment (pituitary tumors; 17 patients, in one patient the tumor increased in size with 10 weeks of mifepristone) | effect on tyrosine aminotransferase (TAT) activity (glucocorticoid receptor) | effect on progesterone receptor (progesterone receptor) | effect on mineralocorticoid receptor [1] | effect on androgen receptor (androgen receptor) | tolerability ([2]; clinical studies) | glycemic and hypertension control and other manifestations of cortisol excess ([2]; patients with endogenous hypercortisolism) | tumor volume shrinkage (pituitary macroadenoma; Example 2 patient, following three months of relacorilant administration) [%] | multiplication of the three post-treatment measurements (indication of tumor volume) (pituitary macroadenoma; Example 2 patient, pre-treatment measure 14,300 mm^3) | effect on pituitary tumor size (pituitary macroadenoma; two Cushing's Disease patients (both macroadenomas), three months of daily relacorilant) | effect on estrogen receptor (estrogen receptor)
CC#C[C@]1(O)CC[C@H]2[C@@H]3CCC4=CC(=O)CCC4=C3[C@@H](c3ccc(N(C)C)cc3)C[C@@]21C [mifepristone] | no regression | stable in all but one patient | decreases |  |  |  |  |  |  |  |  | 
Cn1cc(S(=O)(=O)N2CCC3=Cc4c(cnn4-c4ccc(F)cc4)C[C@]3(C(=O)c3cc(C(F)(F)F)ccn3)C2)cn1 [relacorilant, (R)-(1-(4-fluorophenyl)-6-((1-methyl-1H-pyrazol-4-yl)sulfonyl)-4,4a,5,6,7,8-hexahydro-1H-pyrazolo[3,4-g]isoquinolin-4a-yl)(4-(trifluoromethyl)pyridin-2-yl)methanone] |  |  |  | does not significantly affect | does not significantly affect | does not significantly affect | well tolerated | significantly improved | ~40 | 8,778 mm^3 | significant pituitary tumor shrinkage; also recorded: shrunk; also recorded: effective to reduce the size of pituitary tumors | does not significantly affect
